The IC50 is the concentration at which inhibition is half-maximal. A higher IC50 goes with weaker potency in that assay.

Series [1] addresses LRRK2 G2019S (Homo sapiens (Human), UniProt Q5S007, G2019S). As to the kind of experiment: LRRK2 G2019S TR-FRET biochemical assay (LRRKtide substrate). To be noted: 134 μM ATP. As to the method: Materials: • LRRK2 G2019S enzyme • Substrate (LRRKtide) • ATP • TR-FRET dilution buffer • pLRRKtide antibody • 384-well assay plate • DMSO
Enzyme Reaction Conditions • 50 mM Tris pH 7.5, 10 mM MgCl2, 1 mM EGTA, 0.01% Brij-35.2 mM DTT • 5 nM LRRK2 • 134 μM ATP • 60 minute reaction time • 23° C. reaction temperature • 10 μL total reaction volume
Detection Reaction Conditions • 1× TR-FRET dilution buffer • 10 mM EDTA • 2 nM antibody • 23° C. reaction temperature • 10 μL total reaction volume
Compounds were prepared by initially diluting to 1 mM with DMSO. 35 μL of reference compound solution, 35 μL of test compound solution, and 35 μL HPE were successively added to the source plate (384-well assay plate, Labcyte). The plates were centrifuged at 2500 rpm for 1 minute and sealed in foil. POD was used to perform a 3.162 fold serial dilution and 100 nL of reference compound solution, test compound solution, HPE and ZPE were transferred to assay plates. The assay plate was centrifuged at 2500 rpm for 1 minute, and sealed with foil.
To perform the enzyme reaction, 5 μL of LRRKtide substrate and kinase mixture in assay buffer was added to all wells of the assay plate. The plate was centrifuged to concentrate the mixture at the bottom of the wells. The assay plate was incubated at 23° C. for 20 minutes. Following incubation, 5 μL of 2×ATP in assay buffer was added to each well, and plates were centrifuged to concentrate the mixture at the bottom of the wells. The plate was incubated at 23° C. for 60 minutes.
To perform the detection of the reaction, EDTA completely mixed in TR-FRET dilution buffer was added to antibody reagent. 10 μL of detection reagent was added to all wells of each well of the assay plate and the plate was centrifuged to concentrate the mixture at the bottom of the wells. The plate was then incubated at 23° C. for 60 minutes. Plates were read on Perkin Elmer Envision 2104 instrument in TR-FRET mode using 340 nm excitation filter, 520 nm fluorescence emission filter, and 490 or 495 nm terbium emission filter.
(In general: TR-FRET usually uses a lanthanide donor and a delayed reading to cut background.)

Series [2] in a line: Metabolic stability in human liver microsomes. The class given is in vitro ADME. To be noted: projected human hepatic clearance scaled from microsomal Clint, well-stirred model. As to the method: Metabolic stability of compounds was evaluated in human liver microsomes (from Corning or XenoTech, LLC) using a 96-well plate assay format. Compounds were incubated at 37° C. at […] final concentration in the microsomal matrix (0.5 mg/mL total protein) in the presence or absence of NADPH cofactor. An NADPH regenerating system, comprised of NADP, MgCl2, isocitric acid, and isocitrate dehydrogenase, was used in the assay. Enzymatic reactions were conducted for 0, 5, 10, 20, 30, or 60 min before termination by addition of acetonitrile containing tolbutamide and labetalol internal standards (100 ng/mL). After shaking for 10 min, plates were subjected to centrifugation (4000 rpm at 4° C.) for 20 min and supernatants were mixed 1:3 with HPLC grade water. Samples were analyzed by LC-MS/MS using appropriate MRM transitions for each analyte and internal standard (IS). Analyte/IS peak area ratios were used to determine percent compound remaining at each time point. Intrinsic clearance (Clint; expressed as mL·min^−1·mg^−1) was calculated from the first order elimination constant (k, min^−1) of test article decay and the volume of the incubation. These values were scaled to intrinsic organ clearance (Clint) using human specific scaling factors (48.8 mg microsomal protein per g liver; 25.7 g liver per kg body weight). Organ Clint was subsequently converted to hepatic clearance (CLhep, mL·min-1·kg-1) using the well-stirred model of hepatic elimination, where Qh is human hepatic blood flow (20.7 mL·min-1·kg-1).
CLhep is the projected human clearance in the liver based on the above in vitro assay. A lower value is indicative of less compound being removed by the liver.
For orientation: Liver microsomes are vesicles of endoplasmic reticulum, rich in cytochrome P450 enzymes.

LRRK2 G2019S, sequence (Q5S007 whole entry G2019S): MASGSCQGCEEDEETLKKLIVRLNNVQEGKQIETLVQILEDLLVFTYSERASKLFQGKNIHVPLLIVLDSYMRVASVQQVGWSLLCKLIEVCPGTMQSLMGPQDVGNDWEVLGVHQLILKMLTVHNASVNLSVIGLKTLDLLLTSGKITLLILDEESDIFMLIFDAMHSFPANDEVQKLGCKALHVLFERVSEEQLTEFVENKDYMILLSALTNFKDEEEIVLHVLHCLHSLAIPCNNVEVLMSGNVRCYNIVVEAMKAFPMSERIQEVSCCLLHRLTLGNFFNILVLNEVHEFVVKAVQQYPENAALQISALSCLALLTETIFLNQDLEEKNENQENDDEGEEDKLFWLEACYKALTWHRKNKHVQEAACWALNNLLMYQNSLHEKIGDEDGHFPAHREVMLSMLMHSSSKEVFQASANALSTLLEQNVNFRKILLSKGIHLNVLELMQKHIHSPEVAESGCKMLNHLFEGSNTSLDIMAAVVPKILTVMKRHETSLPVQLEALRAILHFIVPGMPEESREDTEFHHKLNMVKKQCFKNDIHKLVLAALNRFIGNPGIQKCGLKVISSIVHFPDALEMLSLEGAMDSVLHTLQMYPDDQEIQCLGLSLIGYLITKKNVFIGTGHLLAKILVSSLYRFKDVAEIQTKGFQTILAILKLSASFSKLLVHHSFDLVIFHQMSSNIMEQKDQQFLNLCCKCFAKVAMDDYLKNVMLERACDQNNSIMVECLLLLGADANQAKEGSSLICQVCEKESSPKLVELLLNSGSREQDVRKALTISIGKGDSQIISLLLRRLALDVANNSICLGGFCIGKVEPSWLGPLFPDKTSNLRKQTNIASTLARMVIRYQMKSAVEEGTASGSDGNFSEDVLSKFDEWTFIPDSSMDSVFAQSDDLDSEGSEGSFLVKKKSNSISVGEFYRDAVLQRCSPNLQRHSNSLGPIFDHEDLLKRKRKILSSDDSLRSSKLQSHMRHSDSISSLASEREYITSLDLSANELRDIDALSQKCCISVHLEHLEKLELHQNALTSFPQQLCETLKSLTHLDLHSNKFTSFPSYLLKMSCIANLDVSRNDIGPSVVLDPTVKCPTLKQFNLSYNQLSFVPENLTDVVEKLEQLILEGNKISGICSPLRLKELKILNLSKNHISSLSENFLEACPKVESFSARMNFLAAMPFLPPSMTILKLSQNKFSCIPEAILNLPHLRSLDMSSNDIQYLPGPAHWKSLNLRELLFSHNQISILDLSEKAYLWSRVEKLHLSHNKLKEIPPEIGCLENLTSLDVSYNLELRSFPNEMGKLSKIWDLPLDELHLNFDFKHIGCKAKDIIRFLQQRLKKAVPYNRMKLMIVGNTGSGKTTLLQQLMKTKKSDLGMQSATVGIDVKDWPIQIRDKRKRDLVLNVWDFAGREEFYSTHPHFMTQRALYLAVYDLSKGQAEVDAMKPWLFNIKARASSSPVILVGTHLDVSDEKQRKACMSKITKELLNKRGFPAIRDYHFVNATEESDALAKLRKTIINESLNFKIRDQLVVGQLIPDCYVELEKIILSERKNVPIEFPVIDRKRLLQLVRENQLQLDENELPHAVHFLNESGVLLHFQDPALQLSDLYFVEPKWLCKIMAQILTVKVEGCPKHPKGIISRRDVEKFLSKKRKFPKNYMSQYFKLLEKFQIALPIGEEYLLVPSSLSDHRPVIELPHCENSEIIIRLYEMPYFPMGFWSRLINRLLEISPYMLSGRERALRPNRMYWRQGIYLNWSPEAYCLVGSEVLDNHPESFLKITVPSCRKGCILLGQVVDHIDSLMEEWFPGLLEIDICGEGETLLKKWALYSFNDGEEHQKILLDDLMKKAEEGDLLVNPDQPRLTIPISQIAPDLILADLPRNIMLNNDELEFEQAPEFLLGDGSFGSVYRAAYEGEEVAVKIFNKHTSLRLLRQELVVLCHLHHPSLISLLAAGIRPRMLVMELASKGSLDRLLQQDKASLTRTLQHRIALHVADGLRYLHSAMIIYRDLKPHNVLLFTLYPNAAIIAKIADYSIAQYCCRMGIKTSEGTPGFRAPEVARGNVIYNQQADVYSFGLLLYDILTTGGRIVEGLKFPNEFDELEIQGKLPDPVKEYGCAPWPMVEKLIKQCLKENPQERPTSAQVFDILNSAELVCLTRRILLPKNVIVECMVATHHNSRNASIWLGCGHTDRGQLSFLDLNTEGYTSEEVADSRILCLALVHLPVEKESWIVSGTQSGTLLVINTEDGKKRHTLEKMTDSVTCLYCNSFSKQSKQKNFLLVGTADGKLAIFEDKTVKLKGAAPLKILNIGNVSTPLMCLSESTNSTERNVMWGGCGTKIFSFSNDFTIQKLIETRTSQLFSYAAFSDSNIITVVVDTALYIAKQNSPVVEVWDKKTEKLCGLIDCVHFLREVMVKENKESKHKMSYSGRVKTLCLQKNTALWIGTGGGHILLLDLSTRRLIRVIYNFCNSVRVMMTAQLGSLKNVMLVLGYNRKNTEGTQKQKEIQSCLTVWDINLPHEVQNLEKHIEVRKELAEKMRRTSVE

For `CCNc1nc(Nc2cn(C3C[C@H]3C#N)nc2Cl)ncc1C(F)(F)F` (single isomer, unassigned) [Compound 207], in series [1] (class symbols), the half-maximal inhibitory concentration (IC50) is less than 30 nM.
For the compound `[2H]C([2H])([2H])n1nc(C(C)(C)n2nccn2)cc1Nc1ncc(C(F)(F)F)c(NCC)n1` [Compound 34, N4-ethyl-N2-[1-(^2H3)methyl-3-[2-(2H-1,2,3-triazol-2-yl)propan-2-yl]-1H-pyrazol-5-yl]-5-(trifluoromethyl)pyrimidine-2,4-diamine], the “Human liver microsomes CLhep” value in series [2] stood at 0.75 mL/min/kg.
`N#C[C@@H]1CC1n1cc(Nc2ncc(C(F)(F)F)c(NCC(F)F)n2)c(C2CC2)n1` (single isomer, unassigned) [Compound 210] came in with an IC50 in series [1] (class symbols) of less than 30 nM.
Regarding `CNc1nc(Nc2cn(C(C)(C)c3ncn(C)n3)nc2C)ncc1C(F)(F)F` [Compound 218], in series [2], the “Human liver microsomes CLhep” value came to 0 mL/min/kg.
Consider `CNc1nc(Nc2cn(C3C[C@@H]3C#N)nc2C2CC2)ncc1C(F)(F)F` (single isomer, unassigned) [Compound 208], for which the concentration for half-maximal inhibition (IC50) in series [1] (class symbols) was less than 30 nM.
Regarding `CNc1nc(Nc2cnn(C3CCCC3(C)O)c2C)ncc1C(F)(F)F` (centres unmarked) [Compound 30], the half-inhibitory concentration (IC50) in series [1] (class symbols) is 30 to 60 nM.
For `CCNc1nc(Nc2cn(C3(C)CCOC3=O)nc2C2CC2)ncc1Br` (centres unmarked) [Compound 114], the “Human liver microsomes CLhep” value in series [2] was found to be 16.508 mL/min/kg. In addition, the IC50 in series [1] was 1.05 nM; in series [1] (class symbols), less than 30 nM.
The compound `CNc1nc(Nc2cn(C3C[C@H]3C#N)nc2C2CC2)ncc1C(F)(F)F` (single isomer, unassigned) [Compound 209] had a half-inhibitory concentration (IC50) in series [1] (class symbols) of less than 30 nM.
Same read-out and setting: the same measure for `CCNc1nc(Nc2cnn(C3CNCCC3(F)F)c2C)ncc1C(F)(F)F` (centres unmarked) [Compound 200]: less than 30 nM.
Take `CCNc1nc(Nc2cnn3c2CC(n2nccn2)C3)ncc1C(F)(F)F` (centres unmarked) [Compound 54A]: the IC50 in series [1] (class symbols) was less than 30 nM.
For the compound `COc1nc(Nc2cn(C3(C)CCOC3=O)nc2C)ncc1Br` (centres unmarked) [Compound 102], in series [1] (class symbols), the half-inhibitory concentration (IC50) is less than 30 nM.
Still for that read-out and setting: the same measure for `CCNc1nc(Nc2cn(C3(C)CCOC3=O)nc2C)ncc1C(F)(F)F` (centres unmarked) [Compound 100]: less than 30 nM; for `CCNc1nc(Nc2cn(C3C[C@H]3C#N)nc2C2CC2)ncc1Br` (single isomer, unassigned) [Compound 215]: less than 30 nM; for `CCNc1nc(Nc2cn(C3(C)CCOC3=O)nc2Cl)ncc1C(F)(F)F` (centres unmarked) [Compound 117]: less than 30 nM.
As to `CCNc1nc(Nc2cc(C3(C)CCOC3=O)nn2C2CC2)ncc1Br` (centres unmarked) [Compound 150], the “Human liver microsomes CLhep” value in series [2] is recorded as 11.077 mL/min/kg. This compound also displayed an IC50 in series [1] of 1.22 nM.
Turning to `CNc1nc(Nc2cnn(C3CN(C4COC4)CCC3(F)F)c2Cl)ncc1C(F)(F)F` (centres unmarked) [Compound 28], the IC50 in series [1] (class symbols) is less than 30 nM.
In the case of `CNc1nc(Nc2cn(C3(C)CCOC3=O)nc2Cl)ncc1C(F)(F)F` (centres unmarked) [Compound 99], the half-inhibitory concentration (IC50) in series [1] (class symbols) is less than 30 nM.
On the same count and under the same terms, the same measure for `COc1nc(Nc2cn(C3(C)CCNC3=O)nc2C)ncc1Br` (centres unmarked) [Compound 64A]: less than 30 nM; for `CCN1CCC(F)(F)C(n2ncc(Nc3ncc(C(F)(F)F)c(NC)n3)c2Cl)C1` (centres unmarked) [Compound 202]: less than 30 nM.
On the same count and under the same terms, then `CCNc1nc(Nc2cnn3c2CC(C#N)C3)ncc1C(F)(F)F` (centres unmarked) [Compound 52A], with less than 30 nM; and `CCNc1nc(Nc2cn(C3C[C@@H]3C#N)nc2Cl)ncc1C(F)(F)F` (single isomer, unassigned) [Compound 206], with less than 30 nM.
In the case of `CCNc1nc(Nc2cn(C3(C)CCOC3=O)nc2C2CC2)ncc1C(F)(F)F` (centres unmarked) [Compound 104], in series [2], the “Human liver microsomes CLhep” value was 11.59 mL/min/kg. In series [1], this compound gave an IC50 of 0.96 nM.
With `CCNc1nc(Nc2cnn(C3CCCN(CC(F)F)C3)c2C)ncc1C(F)(F)F` (centres unmarked) [Compound 116], in series [1] (class symbols), the IC50 is less than 30 nM.
In the case of `CCNc1nc(Nc2cc(C3(C)CCn4ncnc43)nn2C2CC2)ncc1C(F)(F)F` (centres unmarked) [Compound 172], the “Human liver microsomes CLhep” value in series [2] is given as 19.9 mL/min/kg. Further, the results for the IC50 in series [1] and in series [1] (class symbols) were 1.47 nM and less than 30 nM, respectively.
Compound `CNc1nc(Nc2cn(C3(C)CCOC3=O)nc2C)ncc1C(F)(F)F` (centres unmarked) [Compound 119] registered an IC50 in series [1] (class symbols) of less than 30 nM.
In series [1] (class symbols), `Cc1nn(C2(C)CCOC2=O)cc1Nc1ncc(C(F)(F)F)c(C2CC2)n1` (centres unmarked) [Compound 103] yielded a half-inhibitory concentration (IC50) of less than 30 nM.
On to `CNc1nc(Nc2cc(C3(C)CCOC3=O)nn2C2CC2)ncc1C(F)(F)F` (centres unmarked) [Compound 155], for which, in series [2], the “Human liver microsomes CLhep” value stood at 5.519 mL/min/kg. This compound also came in with a 50% inhibitory concentration (IC50) in series [1] of 1.95 nM.
The compound `CCNc1nc(Nc2cn(C3C[C@@H]3C#N)nc2C2CC2)ncc1Br` (single isomer, unassigned) [Compound 214] gave an IC50 in series [1] (class symbols) of less than 30 nM.

The record behind these values is patent US11111235B2 (Denali Therapeutics Inc., priority 2016, dated 2021).
